Here are results for 2 compounds from patent US20110293745A1, “AURORA KINASE INHIBITORS” (SUNESIS PHARMACEUTICALS, INC., priority 2008, published 2011).

One series concerns MiaPaca2. Kind of series: Cell cycle analysis (cells with ≧4N DNA content). The series is classed as cell-based. The following applies: Homo sapiens, MIA PaCa-2, MiaPaca2, 16 hours. From the text:
Cells were fixed, stained, and analyzed.

Another series concerns the target T1, Axl (Homo sapiens, UniProt P30530).
T1 construct: purchased Upstate Biotechnology, Dundee, UK
Kind of series: Radiometric kinase assay (Upstate panel). The series is classed as biochemical.

Series [1] concerns HCT 116 colon cancer xenograft. In words: In vivo efficacy, mouse xenograft. On the procedure: HCT 116 colon cancer cells [200 μL of a 2.5×10^7 cells/mL suspension (1:1 DPBS with cells:Matrigel)] were subcutaneously implanted in the right hind flank of female nu/nu athymic mice. After 7 days, when tumors reached an average volume of approximately 200 mm^3, animals were weighed, randomized by tumor volume (l×w×h×0.52), and assigned to the various study groups before initial dosing.
[…]. The animals on the twice-weekly schedule received compound on Days 1, 4, 8, 11, 15 and 18. […].
Percent TGI is then calculated with the following equation: […]
where TVt is the average tumor volume on Day 10 and TV, is the initial average tumor volume. ANOVA was performed to calculate statistical significance, defined as p<0.05.
Time To Endpoint (TTE) was calculated for each individual animal to reach the predetermined study end point where the tumor volume becomes 1200 mm^3 or 10% of body weight or a greater than 20% body weight loss for two sequential measurements. The TTE is calculated and the median value is recorded for the group. Tumor Growth Delay (TGD) is then calculated with the following equation:
TGD=median TTEtreatment−median TTEcontrol

For series [2], the system named is cleaved PARP in HCT 116 xenograft tumors. Kind of series: PARP cleavage in tumor lysates (western blotting). The following applies: single IP dose 170 mg/kg. In kind it is in vivo, mouse. On the procedure:
(§1) PARP cleavage was measured in HCT 116 (colon carcinoma) and MV-4-11 tumor lysates by western blotting. […] HCT 116 tumors were collected 3, 6 and 12 hrs post dosing; MV-4-11 tumors were collected at 2, 6 and 24 hrs post dosing. […] Tumors were lysed in cell extraction buffer (Biosource # FNN0011) containing protease inhibitors (Sigma # P2714), and PMSF Phenylmethanesulfonyl fluoride (PMSF) [#P7626, Sigma]. Forty micrograms of protein for each sample was loaded and run on 4-12% Tris-Glycine NuPAGE gel (Invitrogen), in Novex Tris-Glycine running buffer (Invitrogen). After gel separation, proteins were electro-transferred to a PVDF membrane (Invitrogen).
On the technique in general: In western blotting, separated proteins are transferred to a membrane and probed.

Series [3] deals with cleaved PARP in MV-4-11 xenograft tumors. Kind of series: PARP cleavage in tumor lysates (western blotting). In kind it is in vivo, mouse. The following applies: single IP dose 50 mg/kg or 100 mg/kg; 2, 6, 24 hrs. How it is done:
as §1

Another series deals with CCRF-CEM. Kind of series: cells. The following applies: Homo sapiens, 16 h, read-out: Cell Cycle EC50. On the procedure:
(§2) Cells were fixed, stained, and analyzed. The percentage of cells with ≧4N DNA content as a function of concentration was fit to estimate EC50. For cell cycle analysis on nonadherent cells or cells with irregular morphology (A2780, HL-60, CCRF-CEM, and HT-29), tumor cells were seeded in 12-well tissue culture plates overnight at 37° C. […] Cells were trypsinized, collected, stained with propidium iodide, and analyzed by flow cytometry.

For another series, the system named is HCT116. In words: cells. Conditions: Homo sapiens, HCT-116, 16 h, read-out: Cell Cycle EC50. How it is done:
as §2

The test system of another series is A375. In words: cells. Conditions: Homo sapiens, A-375, 16 h, read-out: Cell Cycle EC50. On the procedure:
as §2

The next series has as its system MDA-MB-231. In words: cells. The following applies: Homo sapiens, MDA-MB-231, 16 h, read-out: Cell Cycle EC50. On the procedure: as §2
A further series concerns A2780. Kind of series: cells. Conditions: Homo sapiens, A2780, 16 h, read-out: Cell Cycle EC50. On the procedure: as §2
Another series relates to PC3. In words: cells. The following applies: Homo sapiens, PC-3, 16 h, read-out: Cell Cycle EC50. On the procedure:
as §2

Another series concerns H1299. Kind of series: cells. The following applies: Homo sapiens, NCI-H1299, 16 h, read-out: Cell Cycle EC50. On the procedure:
as §2

In the next series the test system is Calu-6. In words: cells. Conditions: Homo sapiens, Calu-6, 16 h, read-out: Cell Cycle EC50. How it is done:
as §2

Another series deals with HL-60. In words: cells. The following applies: Homo sapiens, HL-60, 16 h, read-out: Cell Cycle EC50. On the procedure: as §2
Another series relates to HeLa. In words: cells. Conditions: Homo sapiens, 16 h, read-out: Cell Cycle EC50. How it is done:
as §2

The target in the next series is T2, Flt4 (Homo sapiens, UniProt P35916).
T2 construct: purchased Upstate Biotechnology, Dundee, UK
In words: Radiometric kinase assay (Upstate panel). In kind it is biochemical.

A short description of series [4]: Clinical serum concentration versus target threshold. The following applies: patients; for Duration of target serum concentration: target serum concentration 1 μM. The series is classed as in vivo, human.
Series [5] is described as follows: Rising dose pharmacokinetics (exposure, gender). The series is classed as in vivo, rats. Conditions: for clearance / half-life / Vd: Sprague-Dawley, plasma, iv. The text has this:
Pharmacokinetic parameters were estimated using noncompartmental analysis within WinNonlin v. 4.1. […] For rising dose experiments measuring exposure for each species, sets containing several animals were singly dosed at a given dose.

Setting [6] is: HCT 116 (Colon), 75 mg/kg biw × 3.
Where [7] appears, read: HCT 116 (Colon), 100 mg/kg biw × 3.
The mark [8] stands for this setting: HCT 116 (Colon), 150 mg/kg biw × 3.

Read-outs that look alike come from different tables or passages of the source. Some results are limits rather than exact numbers.

T1 sequence (P30530 26-894): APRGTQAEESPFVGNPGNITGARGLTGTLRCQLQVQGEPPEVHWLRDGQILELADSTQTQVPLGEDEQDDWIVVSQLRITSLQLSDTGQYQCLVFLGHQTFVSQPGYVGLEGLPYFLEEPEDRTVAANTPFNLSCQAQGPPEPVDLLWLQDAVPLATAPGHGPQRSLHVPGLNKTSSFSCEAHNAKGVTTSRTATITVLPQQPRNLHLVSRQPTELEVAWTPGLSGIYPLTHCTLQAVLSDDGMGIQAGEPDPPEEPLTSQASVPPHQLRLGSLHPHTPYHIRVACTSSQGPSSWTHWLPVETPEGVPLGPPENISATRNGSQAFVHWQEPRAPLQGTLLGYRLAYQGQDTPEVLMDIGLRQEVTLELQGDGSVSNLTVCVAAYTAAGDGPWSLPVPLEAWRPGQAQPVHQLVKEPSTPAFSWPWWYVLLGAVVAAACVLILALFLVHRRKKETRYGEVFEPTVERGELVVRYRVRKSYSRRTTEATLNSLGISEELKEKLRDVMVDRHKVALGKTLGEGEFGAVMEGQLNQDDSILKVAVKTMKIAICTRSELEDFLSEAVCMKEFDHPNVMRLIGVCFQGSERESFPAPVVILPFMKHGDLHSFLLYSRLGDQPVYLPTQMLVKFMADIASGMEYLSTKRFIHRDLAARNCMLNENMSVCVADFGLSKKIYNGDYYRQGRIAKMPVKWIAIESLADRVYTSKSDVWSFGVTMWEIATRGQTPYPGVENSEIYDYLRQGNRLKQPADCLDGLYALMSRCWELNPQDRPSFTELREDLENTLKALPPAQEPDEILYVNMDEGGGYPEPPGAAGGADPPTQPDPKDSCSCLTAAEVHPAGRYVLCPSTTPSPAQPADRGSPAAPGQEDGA
T2 sequence (P35916 25-1363): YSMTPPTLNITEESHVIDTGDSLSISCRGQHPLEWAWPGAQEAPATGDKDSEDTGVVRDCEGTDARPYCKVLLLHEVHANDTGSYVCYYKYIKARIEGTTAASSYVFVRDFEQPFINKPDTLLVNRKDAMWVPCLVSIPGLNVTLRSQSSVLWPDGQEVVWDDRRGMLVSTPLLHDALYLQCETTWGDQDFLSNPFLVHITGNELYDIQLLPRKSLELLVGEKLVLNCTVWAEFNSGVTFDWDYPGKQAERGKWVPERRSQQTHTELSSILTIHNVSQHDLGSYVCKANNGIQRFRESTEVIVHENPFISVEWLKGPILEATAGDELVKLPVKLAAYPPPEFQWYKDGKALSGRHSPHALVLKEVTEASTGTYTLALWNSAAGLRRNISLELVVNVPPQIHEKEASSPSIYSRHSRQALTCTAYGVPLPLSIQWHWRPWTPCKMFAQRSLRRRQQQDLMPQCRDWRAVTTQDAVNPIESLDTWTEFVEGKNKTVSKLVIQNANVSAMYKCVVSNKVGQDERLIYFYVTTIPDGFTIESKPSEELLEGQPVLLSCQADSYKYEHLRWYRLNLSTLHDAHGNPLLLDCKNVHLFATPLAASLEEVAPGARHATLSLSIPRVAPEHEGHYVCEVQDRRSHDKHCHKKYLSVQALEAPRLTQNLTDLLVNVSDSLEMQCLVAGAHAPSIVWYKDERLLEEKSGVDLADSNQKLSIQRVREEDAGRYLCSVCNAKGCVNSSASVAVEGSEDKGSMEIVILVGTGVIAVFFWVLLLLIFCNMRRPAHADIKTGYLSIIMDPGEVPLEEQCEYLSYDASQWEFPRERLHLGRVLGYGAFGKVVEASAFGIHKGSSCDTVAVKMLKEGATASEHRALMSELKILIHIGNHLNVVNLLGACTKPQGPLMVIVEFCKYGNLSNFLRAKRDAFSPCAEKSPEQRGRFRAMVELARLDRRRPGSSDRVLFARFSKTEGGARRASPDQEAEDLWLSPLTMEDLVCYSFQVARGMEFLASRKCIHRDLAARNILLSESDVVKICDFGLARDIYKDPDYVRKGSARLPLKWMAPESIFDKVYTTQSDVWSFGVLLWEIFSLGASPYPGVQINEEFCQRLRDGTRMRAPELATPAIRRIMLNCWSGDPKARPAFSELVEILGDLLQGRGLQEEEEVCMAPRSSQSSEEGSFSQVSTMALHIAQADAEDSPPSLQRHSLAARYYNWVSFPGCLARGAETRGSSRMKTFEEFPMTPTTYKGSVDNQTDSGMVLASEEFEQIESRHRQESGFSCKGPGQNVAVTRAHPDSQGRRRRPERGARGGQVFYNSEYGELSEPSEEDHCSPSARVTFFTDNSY

As for `CS(=O)(=O)O.O=C(Nc1cccc(Cl)c1)Nc1ncc(CCNc2ncnc3ccsc23)s1` [Compound 1, 1-(3-chlorophenyl)-3-{5-[2-(thieno[3,2-d]pyrimidin-4-ylamino)ethyl]thiazo}-urea], the EC50 (usually the concentration giving half of the maximal effect) stood at 9 nM in the series with MiaPaca2; 4.2 nM in the series with CCRF-CEM; 34 nM in the series on HCT116; 93 nM in the series on A375; 30 nM with MDA-MB-231; 6.1 nM in the series on A2780. The EC50 with PC3 came out at 11 nM; in the series on H1299 it was 80 nM; in the series with Calu-6 it was 13 nM; in the series with HL-60, 7 nM; in the series with HeLa, 290 nM. In addition, the values for the IC50 on Axl and against Flt4 were 0.084 µM and 0.014 µM, respectively. Also, the “TGD” value stood at 45 days in series [1] (100 mg/kg, qd × 5, 9 d off × 2); 22.5 days in series [1] (125 mg/kg, Qw × 3); 32.5 days in series [1] (150 mg/kg, biw × 3); 22 days in series [1] (setting [6]); 25.1 days in series [1] (setting [7]); 32.5 days in [1] (setting [8]). Besides, the results for the “% TGI” value in series [1] (setting [6]), in series [1] (setting [7]) and in series [1] (setting [8]) were 67.5%, 79.4% and 95.6%, respectively. The “time after dose PARP cleavage is maintained” value in series [2] is given as “at least 12 hr”. Besides, the “time after dose at which PARP cleavage became evident” value in series [2] was 3 h. Besides, the PARP cleavage entry in series [3] is “dose- and time-dependent”.
Take `O=C(Nc1cccc(Cl)c1)Nc1ncc(CCNc2ncnc3ccsc23)s1` [Compound 2, 1-(3-chlorophenyl)-3-{5-[2-(thieno[3,2-d]pyrimidin-4-ylamino)ethyl]thiazol-2-yl}-urea]: the “serum levels versus preclinical target inhibitory levels” value in [4] (240 mg/m^2 dose level) was “exceeded the preclinical target inhibitory levels”. For the same compound, the “minimum duration target serum concentration was achieved” value in series [4] (all dose levels) is at least 4 h. In addition, the “Duration of target serum concentration” value is 4 h in [4] (3-hour infusion of Compound 1, 30 mg/m^2); 8 h in [4] (3-hour infusion of Compound 1, 60 mg/m^2); 10 h in series [4] (3-hour infusion of Compound 1, 120 mg/m^2); 20 h in series [4] (3-hour infusion of Compound 1, 240 mg/m^2); 20 h in [4] (3-hour infusion of Compound 1, 480 mg/m^2). Besides, the clearance (in general, a measure of how efficiently the substance is removed, as volume per time) in series [5] (60 mg/m2, rat, 60 mg/m^2) was determined as 17.2 mL/min/kg; in series [5] (300 mg/m2, rat, 300 mg/m^2), 4 mL/min/kg; in series [5] (600 mg/m2, rat, 600 mg/m^2) it was 2 mL/min/kg. Besides, the half-life – broadly, the time needed for the level to fall by half in the phase considered – in [5] (60 mg/m2, rat, 60 mg/m^2) was 1.4 h; in [5] (300 mg/m2, rat, 300 mg/m^2), 1.7 h; in [5] (600 mg/m2, rat, 600 mg/m^2) it was 5.9 h. For the same compound, the Vd is 1.3 L/kg in series [5] (60 mg/m2, rat, 60 mg/m^2, read-out: Vss); 1.1 L/kg in series [5] (300 mg/m2, rat, 300 mg/m^2, read-out: Vss); 1.1 L/kg in [5] (600 mg/m2, rat, 600 mg/m^2, read-out: Vss). Further, the “dose dependence of systemic exposure (AUC)” value in [5] (most pronounced in rats and mice, lesser extent in dogs) was “non-linear systemic exposure”.
